Laboratory results as given in ChEMBL document CHEMBL1139263, “New lycorine-type alkaloid from Lycoris traubii and evaluation of antitrypanosomal and antimalarial activities of lycorine derivatives” (Bioorg Med Chem, 2008).
Converted amounts (≈) assume the structure as drawn.

Key:
Plasmodium falciparum [1] = assay: Antimalarial activity against drug-resistant Plasmodium falciparum K1 infected human erythrocytes after 72 hrs; type: functional, organism-based; conditions: K1, 72 h
Plasmodium falciparum [2] = assay: Antimalarial activity against drug-sensitive Plasmodium falciparum FCR3 infected human erythrocytes after 72 hrs; type: functional, organism-based; conditions: FCR3, 72 h
[3] = Selectivity index ratio IC50 for human MRC5 cells to IC50 for Plasmodium falciparum K1; type: functional
[4] = Selectivity index ratio IC50 for human MRC5 cells to IC50 for Trypanosoma brucei brucei GUTat3.1; type: functional
[5] = test system: Trypanosoma brucei brucei; assay: Antitrypanosomal activity against Trypanosoma brucei brucei GUTat3.1 after 72 hrs by alamar blue assay; type: functional, organism-based; conditions: GUTat3.1, 72 h
[6] = Selectivity index ratio IC50 for human MRC5 cells to IC50 for Plasmodium falciparum FCR3; type: functional
MRC5 = assay: Cytotoxicity against human MRC5 cells after 7 days by MTT assay; type: cell-based; conditions: MRC5, 168 h
Plasmodium falciparum [7] = assay: Antimalarial activity against Plasmodium falciparum D10; type: functional, organism-based
Plasmodium falciparum [8] = assay: Antimalarial activity against Plasmodium falciparum FAC8; type: functional, organism-based
[9] = test system: Trypanosoma brucei rhodesiense; assay: Antitrypanosomal activity against Trypanosoma brucei rhodesiense STIB900 trypomastigotes; type: functional, organism-based

CC(=O)O[C@H]1[C@H]2c3cc4c(cc3CN3CCC(=C[C@@H]1O)[C@H]23)OCO4
IC50 (Plasmodium falciparum [1]): 0.36 µg/mL (≈ 1.09 µM)
IC50 (Plasmodium falciparum [2]): 0.3 µg/mL (≈ 0.911 µM)
Ratio IC50 [3]: 3.6
Ratio IC50 [4]: 0.2
IC50 [5]: 5.22 µg/mL (≈ 15.8 µM)
Ratio IC50 [6]: 4.3
IC50 (MRC5): 1.29 µg/mL (≈ 3.92 µM)

CC(=O)O[C@H]1[C@H]2c3cc4c(cc3CN3CCC(=C[C@@H]1OC(C)=O)[C@H]23)OCO4
IC50 (Plasmodium falciparum [7]): 1 µg/mL (≈ 2.69 µM)
IC50 (Plasmodium falciparum [8]): 1 µg/mL (≈ 2.69 µM)
IC50 (Plasmodium falciparum [1]): 7.6 µg/mL (≈ 20.5 µM)
IC50 [9]: 1 µg/mL (≈ 2.69 µM)
Ratio IC50 [3]: 2.4
Ratio IC50 [4]: <1.4
IC50 [5]: > 12.5 µg/mL
IC50 (MRC5): 18.1 µg/mL (≈ 48.8 µM)

CCC(=O)O[C@H]1[C@H]2c3cc4c(cc3CN3CCC(=C[C@@H]1O)[C@H]23)OCO4
IC50 (Plasmodium falciparum [1]): 0.37 µg/mL (≈ 1.08 µM)
IC50 (Plasmodium falciparum [2]): 0.3 µg/mL (≈ 0.874 µM)
Ratio IC50 [3]: 13.5
Ratio IC50 [4]: 3.7
IC50 [5]: 1.34 µg/mL (≈ 3.9 µM)
Ratio IC50 [6]: 16.6
IC50 (MRC5): 4.99 µg/mL (≈ 14.5 µM)

CCCC(=O)O[C@H]1[C@H]2c3cc4c(cc3CN3CCC(=C[C@@H]1OC(=O)CCC)[C@H]23)OCO4
IC50 (Plasmodium falciparum [1]): 0.67 µg/mL (≈ 1.57 µM)
IC50 (Plasmodium falciparum [2]): 0.53 µg/mL (≈ 1.24 µM)
Ratio IC50 [3]: 21.7
Ratio IC50 [6]: 27.5

CCCC(=O)O[C@H]1[C@H]2c3cc4c(cc3CN3CCC(=C[C@@H]1O)[C@H]23)OCO4
IC50 (Plasmodium falciparum [1]): 0.41 µg/mL (≈ 1.15 µM)
IC50 (Plasmodium falciparum [2]): 0.32 µg/mL (≈ 0.895 µM)
Ratio IC50 [3]: 8.8
Ratio IC50 [4]: 2.6
IC50 [5]: 1.38 µg/mL (≈ 3.86 µM)
Ratio IC50 [6]: 11.3
IC50 (MRC5): 3.6 µg/mL (≈ 10.1 µM)

C[C@@H](O)CC(=O)O[C@@H]1[C@H]2c3cc4c(cc3CN3CCC(=C[C@@H]1O)[C@H]23)OCO4
IC50 (Plasmodium falciparum [1]): 0.62 µg/mL (≈ 1.66 µM)
IC50 (Plasmodium falciparum [2]): 0.49 µg/mL (≈ 1.31 µM)
Ratio IC50 [3]: 10.2
Ratio IC50 [4]: 2.6
IC50 [5]: 2.45 µg/mL (≈ 6.56 µM)
Ratio IC50 [6]: 13
IC50 (MRC5): 6.35 µg/mL (≈ 17 µM)

CC(=O)O[C@H]1C=C2CCN3Cc4cc5c(cc4[C@H]([C@@H]1O)[C@@H]23)OCO5
IC50 (Plasmodium falciparum [1]): 8.21 µg/mL (≈ 24.9 µM)
Ratio IC50 [3]: 0.7
Ratio IC50 [4]: 40.7
IC50 [5]: 0.15 µg/mL (≈ 0.455 µM)
IC50 (MRC5): 6.11 µg/mL (≈ 18.6 µM)

CCC(=O)O[C@H]1[C@H]2c3cc4c(cc3CN3CCC(=C[C@@H]1OC(=O)CC)[C@H]23)OCO4
IC50 (Plasmodium falciparum [1]): 4.2 µg/mL (≈ 10.5 µM)
Ratio IC50 [3]: >23.8
IC50 (MRC5): > 23.8 µg/mL

C[C@H](O)CC(=O)O[C@H]1[C@H]2c3cc4c(cc3CN3CCC(=C[C@@H]1O)[C@H]23)OCO4
IC50 (Plasmodium falciparum [1]): 0.6 µg/mL (≈ 1.61 µM)
IC50 (Plasmodium falciparum [2]): 0.45 µg/mL (≈ 1.21 µM)
Ratio IC50 [3]: 13.5
Ratio IC50 [4]: 4.3
IC50 [5]: 1.9 µg/mL (≈ 5.09 µM)
Ratio IC50 [6]: 18
IC50 (MRC5): 8.11 µg/mL (≈ 21.7 µM)

C[C@@H]1CC[C@H]2[C@@H](C)C(=O)O[C@@H]3O[C@@]4(C)CC[C@@H]1[C@]32OO4 [ARTEMISININ]
IC50 (Plasmodium falciparum [1]): 0.0057 µg/mL (≈ 0.0202 µM)
IC50 (Plasmodium falciparum [2]): 0.006 µg/mL (≈ 0.0213 µM)
Ratio IC50 [3]: 7924.5
Ratio IC50 [6]: 7528.3

NCCCC(N)(C(=O)O)C(F)F (stereo not drawn) [EFLORNITHINE]
Ratio IC50 [4]: >44
IC50 [5]: 2.27 µg/mL (≈ 12.5 µM)
IC50 (MRC5): > 100 µg/mL

N=C(N)c1ccc(OCCCCCOc2ccc(C(=N)N)cc2)cc1 [PENTAMIDINE]
Ratio IC50 [4]: 3614
IC50 [5]: 0.00158 µg/mL (≈ 0.00464 µM)
IC50 (MRC5): 5.71 µg/mL (≈ 16.8 µM)

Cc1ccc(C(=O)Nc2ccc(S(=O)(=O)O)c3cc(S(=O)(=O)O)cc(S(=O)(=O)O)c23)cc1NC(=O)c1cccc(NC(=O)Nc2cccc(C(=O)Nc3cc(C(=O)Nc4ccc(S(=O)(=O)O)c5cc(S(=O)(=O)O)cc(S(=O)(=O)O)c45)ccc3C)c2)c1 [SURAMIN]
Ratio IC50 [4]: >63
IC50 [5]: 1.58 µg/mL (≈ 1.22 µM)
IC50 (MRC5): > 100 µg/mL
